The target in test [1] is Corticotropin-releasing factor receptor 2 (Mus musculus, UniProt Q60748). The test is described as follows: In vitro effective concentration for mouse corticotropin releasing factor 2 receptor.
The species named for a further test is Mus musculus. The test is described as follows: Selectivity ratio of EC50s for mouse corticotropin releasing factor receptors 1 and 2.
Test [2] addresses Corticotropin-releasing factor receptor 2 (Mus musculus) (UniProt Q60748). The test is described as follows: In vitro agonistic activity against mouse corticotropin releasing factor 2 receptor. It counts as functional.
For test [3], the target named is T1, Corticotropin-releasing factor receptor 1 (Mus musculus, UniProt P35347).
T1 sequence (P35347 whole entry): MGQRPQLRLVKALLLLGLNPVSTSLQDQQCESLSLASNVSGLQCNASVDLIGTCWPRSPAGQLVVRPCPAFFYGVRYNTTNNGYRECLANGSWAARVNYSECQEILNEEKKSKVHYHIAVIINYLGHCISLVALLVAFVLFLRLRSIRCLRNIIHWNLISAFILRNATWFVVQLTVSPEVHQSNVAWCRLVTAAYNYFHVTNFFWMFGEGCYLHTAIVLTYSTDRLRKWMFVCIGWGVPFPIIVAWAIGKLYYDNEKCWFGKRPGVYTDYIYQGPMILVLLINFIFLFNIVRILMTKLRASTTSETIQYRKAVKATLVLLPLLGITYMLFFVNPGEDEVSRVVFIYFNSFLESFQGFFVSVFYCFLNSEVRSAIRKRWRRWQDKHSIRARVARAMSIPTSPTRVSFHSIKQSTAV
Description: In vitro effective concentration for mouse corticotropin releasing factor 1 receptor.

Test [4] deals with T2, Corticotropin-releasing factor receptor 1 (Mus musculus) (UniProt P35347).
T2 sequence (whole entry): T1 sequence (P35347 whole entry)
The test is described as follows: In vitro agonistic activity against mouse corticotropin releasing factor 1 receptor. It counts as functional.

Each structure is given as a SMILES string. pEC50: −log10 of the molar value.

Chain of Corticotropin-releasing factor receptor 2 (Mus musculus) (Q60748 whole entry): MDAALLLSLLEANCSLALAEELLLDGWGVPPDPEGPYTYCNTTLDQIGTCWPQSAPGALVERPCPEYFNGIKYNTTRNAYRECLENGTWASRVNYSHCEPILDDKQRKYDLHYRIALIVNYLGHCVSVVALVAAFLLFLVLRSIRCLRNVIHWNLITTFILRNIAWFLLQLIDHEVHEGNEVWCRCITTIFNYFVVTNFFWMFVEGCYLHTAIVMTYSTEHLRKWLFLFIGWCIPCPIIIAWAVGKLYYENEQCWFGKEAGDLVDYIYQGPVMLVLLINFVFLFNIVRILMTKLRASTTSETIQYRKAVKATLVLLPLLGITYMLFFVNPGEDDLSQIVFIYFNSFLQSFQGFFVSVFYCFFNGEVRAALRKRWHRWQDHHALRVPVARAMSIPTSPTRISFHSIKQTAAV
Chain of Corticotropin-releasing factor receptor 2 (Q60748 whole entry): as above

As for `CC[C@H](C)[C@H](NC(=O)[C@@H](NC(=O)[C@H](CC(=O)O)NC(=O)[C@H](CC(C)C)NC(=O)[C@H](CC(C)C)NC(=O)[C@H](CC(C)C)NC(=O)[C@H](CCCN=C(N)N)NC(=O)[C@H](CC(N)=O)NC(=O)[C@H](CC(N)=O)NC(=O)[C@H](C)NC(=O)[C@H](C)NC(=O)[C@H](CCC(N)=O)NC(=O)[C@H](CCC(N)=O)NC(=O)[C@H](CCCCN)NC(=O)[C@H](CCC(=O)O)NC(=O)[C@H](CCCCN)NC(=O)[C@H](CCC(=O)O)NC(=O)[C@H](CCC(N)=O)NC(=O)[C@H](CCCCN)NC(=O)[C@H](CCC(=O)O)NC(=O)[C@@H](NC(=O)[C@H](CCC(=O)O)NC(=O)[C@@H](NC(=O)[C@H](CCSC)NC(=O)[C@H](CCCCN)NC(=O)[C@H](CCCN=C(N)N)NC(=O)[C@H](CC(C)C)NC(=O)[C@H](CC(C)C)NC(=O)[C@H](Cc1ccc(O)cc1)NC(=O)[C@H](C)NC(=O)[C@@H]1CCCN1C(=O)[C@H](CC(C)C)NC(=O)[C@H](CC(=O)O)NC(=O)[C@@H](NC(=O)[C@H](CO)NC(=O)[C@@H](NC(=O)[C@@H]1CCCN1C(=O)[C@@H]1CCCN1C(=O)CNC(=O)[C@@H]1CCC(=O)N1)[C@@H](C)CC)[C@@H](C)CC)[C@@H](C)CC)[C@@H](C)CC)[C@@H](C)O)C(=O)O`, the values for the negative logarithm of the EC50 (pEC50) in test [1] and in test [3] were 7.69 and 6.22, respectively. For the same compound, the Selectivity in the test filed under Mus musculus was 30. In addition, the Emax (usually the maximal effect, on the per cent scale that the assay sets) was 98% in test [2] and 95% in test [4].
As to `CC[C@H](C)[C@H](NC(=O)[C@@H](NC(=O)[C@H](CC(=O)O)NC(=O)[C@H](CC(C)C)NC(=O)[C@H](CC(C)C)NC(=O)[C@H](CC(C)C)NC(=O)[C@H](CCCN=C(N)N)NC(=O)[C@H](CC(N)=O)NC(=O)[C@H](CC(N)=O)NC(=O)[C@H](C)NC(=O)[C@H](C)NC(=O)[C@H](CCC(N)=O)NC(=O)[C@H](CCC(N)=O)NC(=O)[C@H](CCCCN)NC(=O)[C@H](CCC(=O)O)NC(=O)[C@H](CCCCN)NC(=O)[C@H](CCC(=O)O)NC(=O)[C@H](CCC(N)=O)NC(=O)[C@H](CCCCN)NC(=O)[C@H](CCC(=O)O)NC(=O)[C@@H](NC(=O)[C@H](CCC(=O)O)NC(=O)[C@@H](NC(=O)[C@H](CCSC)NC(=O)[C@H](CCCCN)NC(=O)[C@H](CCCN=C(N)N)NC(=O)[C@H](CC(C)C)NC(=O)[C@H](CC(C)C)NC(=O)[C@H](CCC(N)=O)NC(=O)[C@H](Cc1c[nH]cn1)NC(=O)[C@@H]1CCCN1C(=O)[C@H](CC(C)C)NC(=O)[C@H](CC(=O)O)NC(=O)[C@@H](NC(=O)[C@H](CO)NC(=O)[C@@H](NC(=O)[C@@H]1CCCN1C(=O)[C@@H]1CCCN1C(=O)CNC(=O)[C@@H]1CCC(=O)N1)[C@@H](C)CC)[C@@H](C)CC)[C@@H](C)CC)[C@@H](C)CC)[C@@H](C)O)C(=O)O`, the pEC50 (commonly the EC50 on a negative log10 scale, so that one unit is a factor of ten) in test [1] is 7.67; in test [3], 6.35. Further, the Selectivity in the test listed under Mus musculus amounted to 21. The Emax in test [2] and in test [4] was 100% each time.
Consider `CC[C@H](C)[C@H](NC(=O)[C@@H](NC(=O)[C@H](CC(=O)O)NC(=O)[C@H](CC(C)C)NC(=O)[C@H](CC(C)C)NC(=O)[C@H](CC(C)C)NC(=O)[C@H](CCCN=C(N)N)NC(=O)[C@H](CC(N)=O)NC(=O)[C@H](CC(N)=O)NC(=O)[C@H](C)NC(=O)[C@H](C)NC(=O)[C@H](CCC(N)=O)NC(=O)[C@H](CCC(N)=O)NC(=O)[C@H](CCCCN)NC(=O)[C@H](CCC(=O)O)NC(=O)[C@H](CCCCN)NC(=O)[C@H](CCC(=O)O)NC(=O)[C@H](CCC(N)=O)NC(=O)[C@H](CCCCN)NC(=O)[C@H](CCC(=O)O)NC(=O)[C@@H](NC(=O)[C@H](CCC(=O)O)NC(=O)[C@@H](NC(=O)[C@H](CCSC)NC(=O)[C@H](CCCCN)NC(=O)[C@H](CCCN=C(N)N)NC(=O)[C@H](CC(C)C)NC(=O)[C@H](CC(C)C)NC(=O)[C@H](Cc1c[nH]cn1)NC(=O)[C@H](CC(C)C)NC(=O)[C@@H]1CCCN1C(=O)[C@H](CC(C)C)NC(=O)[C@H](CC(=O)O)NC(=O)[C@@H](NC(=O)[C@H](CO)NC(=O)[C@@H](NC(=O)[C@@H]1CCCN1C(=O)[C@@H]1CCCN1C(=O)CNC(=O)[C@@H]1CCC(=O)N1)[C@@H](C)CC)[C@@H](C)CC)[C@@H](C)CC)[C@@H](C)CC)[C@@H](C)O)C(=O)O`, for which the pEC50 in test [1] was 8.72; in test [3] it was 7.28. In the test listed under Mus musculus, the Selectivity turned out to be 28. Also, the Emax in test [2] amounted to 81%; in test [4] it was 96%.
`CC[C@H](C)[C@H](NC(=O)[C@@H](NC(=O)[C@H](CC(=O)O)NC(=O)[C@H](CC(C)C)NC(=O)[C@H](CC(C)C)NC(=O)[C@H](CC(C)C)NC(=O)[C@H](CCCN=C(N)N)NC(=O)[C@H](CC(N)=O)NC(=O)[C@H](CC(N)=O)NC(=O)[C@H](C)NC(=O)[C@H](C)NC(=O)[C@H](CCC(N)=O)NC(=O)[C@H](CCC(N)=O)NC(=O)[C@H](CCCCN)NC(=O)[C@H](CCC(=O)O)NC(=O)[C@H](CCCCN)NC(=O)[C@H](CCC(=O)O)NC(=O)[C@H](CCC(N)=O)NC(=O)[C@H](CCCCN)NC(=O)[C@H](CCC(=O)O)NC(=O)[C@@H](NC(=O)[C@H](CCC(=O)O)NC(=O)[C@@H](NC(=O)[C@H](CCSC)NC(=O)[C@H](CCCCN)NC(=O)[C@H](CCCN=C(N)N)NC(=O)[C@H](CC(C)C)NC(=O)[C@H](CC(C)C)NC(=O)[C@H](Cc1c[nH]c2ccccc12)NC(=O)[C@H](Cc1ccccc1)NC(=O)[C@@H]1CCCN1C(=O)[C@H](CC(C)C)NC(=O)[C@H](CC(=O)O)NC(=O)[C@@H](NC(=O)[C@H](CO)NC(=O)[C@@H](NC(=O)[C@@H]1CCCN1C(=O)[C@@H]1CCCN1C(=O)CNC(=O)[C@@H]1CCC(=O)N1)[C@@H](C)CC)[C@@H](C)CC)[C@@H](C)CC)[C@@H](C)CC)[C@@H](C)O)C(=O)O`: the pEC50 was 8.33 in test [1] and 7.02 in test [3]. Further, in the test listed under Mus musculus, the Selectivity is 20. In addition, the figures for the Emax in test [2] and in test [4] were 95% and 100%, respectively.
For `CC[C@H](C)[C@H](NC(=O)[C@@H](NC(=O)[C@H](CC(=O)O)NC(=O)[C@H](CC(C)C)NC(=O)[C@H](CC(C)C)NC(=O)[C@H](CC(C)C)NC(=O)[C@H](CCCN=C(N)N)NC(=O)[C@H](CC(N)=O)NC(=O)[C@H](CC(N)=O)NC(=O)[C@H](C)NC(=O)[C@H](C)NC(=O)[C@H](CCC(N)=O)NC(=O)[C@H](CCC(N)=O)NC(=O)[C@H](CCCCN)NC(=O)[C@H](CCC(=O)O)NC(=O)[C@H](CCCCN)NC(=O)[C@H](CCC(=O)O)NC(=O)[C@H](CCC(N)=O)NC(=O)[C@H](CCCCN)NC(=O)[C@H](CCC(=O)O)NC(=O)[C@@H](NC(=O)[C@H](CCC(=O)O)NC(=O)[C@@H](NC(=O)[C@H](CCSC)NC(=O)[C@H](CCCCN)NC(=O)[C@H](CCCN=C(N)N)NC(=O)[C@H](CC(C)C)NC(=O)[C@H](CC(C)C)NC(=O)[C@H](Cc1c[nH]c2ccccc12)NC(=O)[C@H](CC(C)C)NC(=O)[C@@H]1CCCN1C(=O)[C@H](CC(C)C)NC(=O)[C@H](CC(=O)O)NC(=O)[C@@H](NC(=O)[C@H](CO)NC(=O)[C@@H](NC(=O)[C@@H]1CCCN1C(=O)[C@@H]1CCCN1C(=O)CNC(=O)[C@@H]1CCC(=O)N1)[C@@H](C)CC)[C@@H](C)CC)[C@@H](C)CC)[C@@H](C)CC)[C@@H](C)O)C(=O)O`, in that order: 8.32, 7.01, 20, 96% and 100%.
For `CC[C@H](C)[C@H](NC(=O)[C@@H](NC(=O)[C@H](CC(=O)O)NC(=O)[C@H](CC(C)C)NC(=O)[C@H](CC(C)C)NC(=O)[C@H](CC(C)C)NC(=O)[C@H](CCCN=C(N)N)NC(=O)[C@H](CC(N)=O)NC(=O)[C@H](CC(N)=O)NC(=O)[C@H](C)NC(=O)[C@H](C)NC(=O)[C@H](CCC(N)=O)NC(=O)[C@H](CCC(N)=O)NC(=O)[C@H](CCCCN)NC(=O)[C@H](CCC(=O)O)NC(=O)[C@H](CCCCN)NC(=O)[C@H](CCC(=O)O)NC(=O)[C@H](CCC(N)=O)NC(=O)[C@H](CCCCN)NC(=O)[C@H](CCC(=O)O)NC(=O)[C@@H](NC(=O)[C@H](CCC(=O)O)NC(=O)[C@@H](NC(=O)[C@H](CCSC)NC(=O)[C@H](CCCCN)NC(=O)[C@H](CCCN=C(N)N)NC(=O)[C@H](CC(C)C)NC(=O)[C@H](CC(C)C)NC(=O)[C@H](Cc1c[nH]cn1)NC(=O)[C@H](Cc1ccc(O)cc1)NC(=O)[C@@H]1CCCN1C(=O)[C@H](CC(C)C)NC(=O)[C@H](CC(=O)O)NC(=O)[C@@H](NC(=O)[C@H](CO)NC(=O)[C@@H](NC(=O)[C@@H]1CCCN1C(=O)[C@@H]1CCCN1C(=O)CNC(=O)[C@@H]1CCC(=O)N1)[C@@H](C)CC)[C@@H](C)CC)[C@@H](C)CC)[C@@H](C)CC)[C@@H](C)O)C(=O)O`, in that order: 8.25, 7.19, 13, 88% and 81%.

These data come from ChEMBL document CHEMBL1139487, “Discovery of corticotropin releasing factor 2 receptor selective sauvagine analogues for treatment of skeletal muscle atrophy” (J Med Chem, 2005).
